ChEMBL document CHEMBL1141731, “Bioactive pyridoacridine alkaloids from the micronesian sponge Oceanapia sp” (J Nat Prod, 1998)
Converted amounts (≈) assume the structure as drawn. Blank lines part the entries; values can stand above or below the compound they belong to. The source made the active and inactive calls. The rule behind the calls is not given here.

Assays:
[1] = (§1) Displacement of [3H]diazepam from benzodiazepine binding site of GABAA receptor in rat brain cortical membrane; format: cell membranes
Bacillus subtilis = test: Antimicrobial activities activity against Bacillus subtilis 168 at 100ug/disk after 24 hrs by agar plate diffusion assay; format: functional, organism-based; conditions: subsp. subtilis str. 168
Escherichia coli = test: Antimicrobial activities activity against Escherichia coli ATCC 25922 at 100ug/disk after 24 hrs by agar plate diffusion assay; format: functional, organism-based
Rattus norvegicus [2] = species on record: Rattus norvegicus; test: Displacement of [3H]diazepam from benzodiazepine binding site of GABAA receptor in rat brain cortical membrane at 25 uM; format: cell membranes
[3] = Toxicity against Artemia salina after 24 hrs; format: organism-based; conditions: in vivo
[4] = target: T1, Adenosine receptor A1 (Rattus norvegicus) (UniProt P25099); test: Displacement of [3H]CHA from adenosine A1 receptor in rat brain cortical membrane at 25 uM; format: cell membranes
T1 sequence (whole entry): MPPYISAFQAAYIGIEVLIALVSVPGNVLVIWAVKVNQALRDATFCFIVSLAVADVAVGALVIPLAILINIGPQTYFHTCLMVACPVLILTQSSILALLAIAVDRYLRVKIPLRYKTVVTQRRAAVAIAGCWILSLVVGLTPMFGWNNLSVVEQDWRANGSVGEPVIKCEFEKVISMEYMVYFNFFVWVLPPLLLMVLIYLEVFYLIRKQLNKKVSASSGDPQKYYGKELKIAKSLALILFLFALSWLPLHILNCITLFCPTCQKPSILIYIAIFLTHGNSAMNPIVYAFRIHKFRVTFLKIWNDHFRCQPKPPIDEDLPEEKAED

[5] = target: Adenosine receptor A2a (Rattus norvegicus) (UniProt P30543); test: Displacement of [3H]CGS21680 from adenosine A2A receptor in rat brain striatal membrane at 25 uM; format: cell membranes
HeLa = test: Cytotoxicity against human HeLa cells assessed as incorporation of [3H]thymidine incorporation; format: functional, cell-based
Cladosporium cucumerinum = test: Fungicidal activity against Cladosporium cucumerinum; format: functional, organism-based
Adenosine receptor A2a = Adenosine receptor A2a (Rattus norvegicus, UniProt P30543); test: Displacement of [3H]CGS21680 from adenosine A2A receptor in rat brain striatal membrane; format: cell membranes
Spodoptera littoralis = test: Insecticidal activity against Spodoptera littoralis larvae with artificial diet assessed survival after 6 days; format: functional; conditions: 144 h
MONO-MAC-6 = test: Cytotoxicity against human MONO-MAC-6 cells assessed as incorporation of [3H]thymidine incorporation; format: functional, cell-based
Rattus norvegicus [6] = species on record: Rattus norvegicus; test: as §1; format: cell membranes
Adenosine receptor A1 = target: T2, Adenosine receptor A1 (Rattus norvegicus, UniProt P25099); test: Displacement of [3H]CHA from adenosine A1 receptor in rat brain cortical membrane; format: cell membranes
T2 sequence (P25099 whole entry): T1 sequence (whole entry)

[7] = target: Adenosine receptor A2a (Rattus norvegicus) (UniProt P30543); test: Displacement of [3H]CGS21680 from adenosine A2A receptor in rat brain striatal membrane at 100 uM; format: cell membranes
[8] = target: T1, Adenosine receptor A1 (Rattus norvegicus); test: Displacement of [3H]CHA from adenosine A1 receptor in rat brain cortical membrane at 100 uM; format: cell membranes
Artemia salina = test: Toxicity against Artemia salina at upto 100 ug/mL after 24 hrs; format: organism-based; conditions: in vivo

Chain of Adenosine receptor A2a (Rattus norvegicus) (P30543 whole entry): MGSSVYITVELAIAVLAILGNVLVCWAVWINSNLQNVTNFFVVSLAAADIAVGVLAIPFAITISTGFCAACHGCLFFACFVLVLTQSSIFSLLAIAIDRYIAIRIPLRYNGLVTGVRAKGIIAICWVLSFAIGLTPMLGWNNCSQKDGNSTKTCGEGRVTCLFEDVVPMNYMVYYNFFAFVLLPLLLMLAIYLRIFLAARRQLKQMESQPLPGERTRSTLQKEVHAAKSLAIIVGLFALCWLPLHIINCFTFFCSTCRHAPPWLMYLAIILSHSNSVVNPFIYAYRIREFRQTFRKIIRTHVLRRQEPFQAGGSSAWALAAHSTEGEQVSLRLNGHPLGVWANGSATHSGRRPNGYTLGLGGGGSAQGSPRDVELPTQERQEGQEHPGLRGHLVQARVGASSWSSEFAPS
Chain of Adenosine receptor A2a (P30543 whole entry): as above

Ki [1]: 376 µM
SMILES: Cn1c(=O)c2c(ncn2C)n(C)c1=O [CAFFEINE]

SMILES: CC(=O)NCCc1c2c3c(ccnc3c3ncsc13)-c1ccccc1N2 [KUANONIAMINE D]
Activity (Bacillus subtilis): inactive
Activity (Escherichia coli): inactive
Activity (Rattus norvegicus [2]): 32%
LC50 at 24 h [3]: 19 µg/mL (≈ 52.7 µM)
Activity [4]: 68%
Activity [5]: 56%
IC50 (HeLa): 1.4 µg/mL (≈ 3.88 µM)
Activity (Cladosporium cucumerinum): inactive
Ki (Adenosine receptor A2a): 13.7 µM
LC50 (Spodoptera littoralis): 59 µg/mL (≈ 164 µM)
IC50 (MONO-MAC-6): 0.8 µg/mL (≈ 2.22 µM)
Activity (Rattus norvegicus [6]): Active
Ki (Adenosine receptor A1): 2.94 µM

SMILES: NCCc1c2c3c(ccnc3c3ncsc13)-c1ccccc1N2
Activity (Bacillus subtilis): inactive
Activity (Escherichia coli): inactive
Activity (Rattus norvegicus [2]): 30%
IC50 (HeLa): 1.2 µg/mL (≈ 3.77 µM)
Activity (Cladosporium cucumerinum): inactive
EC50 (Spodoptera littoralis; read-out: ED50 (the source's name)): 141 µg/mL (≈ 443 µM)
IC50 (MONO-MAC-6): 2 µg/mL (≈ 6.28 µM)
Activity [7]: 46%
Activity (Rattus norvegicus [6]): Active
Activity [8]: 36%
Activity (Artemia salina): Non-toxic

SMILES: CCC(=O)NCCc1c2c3c(ccnc3c3ncsc13)-c1ccccc1N2 [KUANONIAMINE C]
Activity (Bacillus subtilis): inactive
Activity (Escherichia coli): inactive
Activity (Rattus norvegicus [2]): 39%
LC50 at 24 h [3]: 37 µg/mL (≈ 98.8 µM)
Activity [4]: 34%
Activity [5]: 43%
IC50 (HeLa): 5.1 µg/mL (≈ 13.6 µM)
Activity (Cladosporium cucumerinum): inactive
LC50 (Spodoptera littoralis): 156 µg/mL (≈ 417 µM)
IC50 (MONO-MAC-6): 1.2 µg/mL (≈ 3.2 µM)
Activity (Rattus norvegicus [6]): Active
